Assay results taken from ChEMBL document CHEMBL5154882, “Discovery of 4-Hydroxyquinazoline Derivatives as Small Molecular BET/PARP1 Inhibitors That Induce Defective Homologous Recombination and Lead to Synthetic Lethality for Triple-Negative Breast Cancer Therapy” (J Med Chem, 2022).
Calls of active or inactive are those of the source. The calls are words filed in the database; no cut-off is given here.

Key:
MDA-MB-231 [1] = test: Induction of DNA damage in human MDA-MB-231 cells assessed as increase in tail DNA measured at 1 uM after 3 days by comet assay; format: functional, cell-based; conditions: time 3.0 day
MDA-MB-468 [2] = test: Cell cycle arrest in human MDA-MB-468 cells assessed as accumulation at S phase incubated for 72 hrs in presence of olaparib by propidium iodide staining-based flow cytometry analysis (Rvb=16.1%); format: functional
MDA-MB-468 [3] = test: Induction of apoptosis in human MDA-MB-468 cells assessed as downregulation of Bcl-2 protein level incubated for 72 hrs in presence of olaparib by Western blot analysis; format: functional, cell-based
MDA-MB-468 [4] = test: Induction of apoptosis in human MDA-MB-468 cells assessed as up-regulation of cleaved caspase 3 protein level incubated for 72 hrs in presence of olaparib by Western blot analysis; format: functional, cell-based
MDA-MB-468 [5] = test: Induction of apoptosis in human MDA-MB-468 cells assessed as early apoptotic cells at 1 uM incubated for 72 hrs in presence of olaparib by annexin V/propidium iodide staining-based flow cytometry analysis (reference value: 4.07%); format: functional
MDA-MB-468 [6] = test: Induction of apoptosis in human MDA-MB-468 cells assessed as up-regulation of Bax protein level at incubated for 72 hrs in presence of olaparib by Western blot analysis; format: functional, cell-based
MDA-MB-468 [7] = test: Induction of DNA damage in human MDA-MB-468 cells assessed as up-regulation of gammaH2AX expression level at 1 uM incubated for 60 mins by DAPI staining based immunofluorescence assay; format: functional, cell-based
MDA-MB-468 [8] = test: Cell cycle arrest in human MDA-MB-468 cells assessed as accumulation at G0/G1 phase incubated for 72 hrs in presence of olaparib by propidium iodide staining-based flow cytometry analysis (reference value: 61.4%); format: functional
MDA-MB-468 [9] = test: Induction of apoptosis in human MDA-MB-468 cells assessed as late apoptotic cells at 1 uM incubated for 72 hrs in presence of olaparib by annexin V/propidium iodide staining-based flow cytometry analysis (reference value: 1.34%); format: functional
MDA-MB-468 [10] = test: Synergistic antiproliferative activity against human MDA-MB-468 cells at compound to Olaparib ratio of 1:3; format: functional, cell-based
MDA-MB-468 [11] = test: Cell cycle arrest in human MDA-MB-468 cells assessed as accumulation at S phase incubated for 72 hrs in presence of olaparib by propidium iodide staining-based flow cytometry analysis (reference value: 21.1%); format: functional
MDA-MB-468 [12] = test: Induction of DNA damage in human MDA-MB-468 cells assessed as up-regulation of gammaH2AX expression level at 1 uM in presence of olaparib by DAPI staining based immunofluorescence assay; format: functional, cell-based
MDA-MB-231 [13] = test: Induction of DNA damage in human MDA-MB-231 cells assessed as increase in tail DNA at 1 uM measured after 3 days in presence of olaparib by comet assay; format: functional, cell-based; conditions: time 3.0 day
MDA-MB-468 [14] = test: Induction of DNA damage in human MDA-MB-468 cells assessed as up-regulation of gammaH2AX expression level at 3 uM by DAPI staining based immunofluorescence assay; format: functional, cell-based
MDA-MB-231 [15] = test: Induction of DNA damage in human MDA-MB-231 cells assessed as increase in tail DNA measured at 3 uM after 3 days by comet assay; format: functional, cell-based; conditions: time 3.0 day
MDA-MB-231 [16] = test: Antitumor activity against human MDA-MB-231 cells xenografted in BALB/c nude mouse assessed as reduction in CtIp expression at 80 mg/kg incubated for 30 to 40 mins by immunohistochemical analysis; format: functional, organism-based; conditions: time 30-40 min
[17] = Toxicity in BALB/c nude mouse xenografted with human MDA-MB-468 cells assessed as morphological changes in spleen at 80 mg/kg, ig administered daily for 16 days measured every 3 days by hematoxyin-eosin staining based analysis; format: organism-based; conditions: in vivo, po, 384 h, time 16 day
[18] = Toxicity in BALB/c nude mouse xenografted with human MDA-MB-468 cells assessed as death at 80 mg/kg, ig administered daily for 16 days measured every 3 days; format: organism-based; conditions: in vivo, po, 384 h, time 16 day
MDA-MB-231 [19] = test: Antitumor activity against human MDA-MB-231 cells xenografted in BALB/c nude mouse assessed as downregulation of PAR at 80 mg/kg by Western blot analysis; format: functional, organism-based
[20] = biological target: Bromodomain-containing protein 4 (Homo sapiens, UniProt O60885); test: Inhibition of BRD4 (unknown origin) at 1 uM relative to control
MDA-MB-231 [21] = test: Antitumor activity against human MDA-MB-231 cells xenografted in BALB/c nude mouse assessed as reduction in PAR expression at 80 mg/kg incubated for 30 to 40 mins by immunohistochemical analysis; format: functional, organism-based; conditions: time 30-40 min
[22] = Toxicity in BALB/c nude mouse xenografted with human MDA-MB-468 cells assessed as morphological changes in liver at 40 to 80 mg/kg, ig administered daily for 16 days measured every 3 days by hematoxyin-eosin staining based analysis; format: organism-based; conditions: in vivo, po, 384 h, dose 40-80 mg/kg, time 16 day
MDA-MB-231 [23] = test: Antitumor activity against human MDA-MB-231 cells xenografted in BALB/c nude mouse assessed as downregulation of c-Myc at 80 mg/kg by Western blot analysis; format: functional, organism-based
[24] = Toxicity in BALB/c nude mouse xenografted with human MDA-MB-468 cells assessed as morphological changes in heart at 40 to 80 mg/kg, ig administered daily for 16 days measured every 3 days by hematoxyin-eosin staining based analysis; format: organism-based; conditions: in vivo, po, 384 h, dose 40-80 mg/kg, time 16 day
[25] = Toxicity in BALB/c nude mouse xenografted with human MDA-MB-468 cells assessed as morphological changes in lung at 40 to 80 mg/kg, ig administered daily for 16 days measured every 3 days by hematoxyin-eosin staining based analysis; format: organism-based; conditions: in vivo, po, 384 h, dose 40-80 mg/kg, time 16 day
[26] = Toxicity in BALB/c nude mouse xenografted with human MDA-MB-468 cells assessed as morphological changes in spleen at 40 to 80 mg/kg, ig administered daily for 16 days measured every 3 days by hematoxyin-eosin staining based analysis; format: organism-based; conditions: in vivo, po, 384 h, dose 40-80 mg/kg, time 16 day
[27] = Toxicity in BALB/c nude mouse xenografted with human MDA-MB-468 cells assessed as morphological changes in kidney at 40 to 80 mg/kg, ig administered daily for 16 days measured every 3 days by hematoxyin-eosin staining based analysis; format: organism-based; conditions: in vivo, po, 384 h, dose 40-80 mg/kg, time 16 day
MDA-MB-231 [28] = test: Antitumor activity against human MDA-MB-231 cells xenografted in BALB/c nude mouse assessed as downregulation of CtIP at 80 mg/kg by Western blot analysis; format: functional, organism-based
MDA-MB-231 [29] = test: Antitumor activity against human MDA-MB-231 cells xenografted in BALB/c nude mouse assessed as downregulation of Rad51 at 80 mg/kg by Western blot analysis; format: functional, organism-based
[30] = biological target: T1, Poly [ADP-ribose] polymerase 1 (Homo sapiens, UniProt P09874); test: Inhibition of PARP1 (unknown origin) at 1 uM relative to control
T1 sequence (P09874 whole entry): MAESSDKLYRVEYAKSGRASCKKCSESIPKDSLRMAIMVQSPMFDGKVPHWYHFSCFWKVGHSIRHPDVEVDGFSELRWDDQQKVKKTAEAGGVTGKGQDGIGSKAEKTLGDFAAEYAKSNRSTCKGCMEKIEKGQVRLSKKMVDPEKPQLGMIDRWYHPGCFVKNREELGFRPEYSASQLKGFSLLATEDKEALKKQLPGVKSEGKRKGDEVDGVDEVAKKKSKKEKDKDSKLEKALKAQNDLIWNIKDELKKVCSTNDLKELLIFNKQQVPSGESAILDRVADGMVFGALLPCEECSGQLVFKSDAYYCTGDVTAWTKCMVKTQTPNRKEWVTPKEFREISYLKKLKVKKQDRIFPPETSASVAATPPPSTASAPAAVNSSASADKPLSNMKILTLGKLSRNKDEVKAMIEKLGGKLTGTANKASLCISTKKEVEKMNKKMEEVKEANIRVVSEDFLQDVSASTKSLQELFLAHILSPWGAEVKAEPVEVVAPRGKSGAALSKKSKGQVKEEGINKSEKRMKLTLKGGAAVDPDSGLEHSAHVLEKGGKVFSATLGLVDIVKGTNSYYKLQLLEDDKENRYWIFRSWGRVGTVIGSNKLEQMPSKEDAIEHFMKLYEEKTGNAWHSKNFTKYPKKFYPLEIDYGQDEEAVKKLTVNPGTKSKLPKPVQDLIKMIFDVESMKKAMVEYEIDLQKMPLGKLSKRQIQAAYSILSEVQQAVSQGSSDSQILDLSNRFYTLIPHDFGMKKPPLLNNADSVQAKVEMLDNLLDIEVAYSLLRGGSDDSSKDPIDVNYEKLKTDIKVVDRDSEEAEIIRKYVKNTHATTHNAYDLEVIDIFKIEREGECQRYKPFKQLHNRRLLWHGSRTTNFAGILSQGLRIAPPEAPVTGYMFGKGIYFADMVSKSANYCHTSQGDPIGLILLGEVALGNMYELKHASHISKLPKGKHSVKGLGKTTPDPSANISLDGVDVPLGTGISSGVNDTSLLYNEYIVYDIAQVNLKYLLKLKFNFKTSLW

MDA-MB-231 [31] = test: Antitumor activity against human MDA-MB-231 cells xenografted in BALB/c nude mouse assessed as reduction in Rad51 expression at 80 mg/kg incubated for 30 to 40 mins by immunohistochemical analysis; format: functional, organism-based; conditions: time 30-40 min
MDA-MB-231 [32] = test: Antiproliferative activity against human MDA-MB-231 cells assessed as reduction in cell viability incubated for 72 hrs by MTT assay; format: functional, cell-based; conditions: MDA-MB-231, 72 h
MDA-MB-468 [33] = test: Antitumor activity against human MDA-MB-468 cells xenografted in BALB/c nude mouse model assessed as tumor growth inhibition at 80 mg/kg, ig administered daily for 16 days measured every 3 days relative to control; format: functional; conditions: MDA-MB-468, po, 384 h, time 16 day, read-out: TGI
[34] = Toxicity in BALB/c nude mouse xenografted with human MDA-MB-468 cells assessed as morphological changes in heart at 80 mg/kg, ig administered daily for 16 days measured every 3 days by hematoxyin-eosin staining based analysis; format: organism-based; conditions: in vivo, po, 384 h, time 16 day
[35] = Toxicity in BALB/c nude mouse xenografted with human MDA-MB-468 cells assessed as death at 40 to 80 mg/kg, ig administered daily for 16 days measured every 3 days; format: organism-based; conditions: in vivo, po, 384 h, dose 40-80 mg/kg, time 16 day
[36] = Toxicity in BALB/c nude mouse xenografted with human MDA-MB-468 cells assessed as change in body weight at 40 to 80 mg/kg, ig administered daily for 16 days measured every 3 days; format: organism-based; conditions: in vivo, po, 384 h, dose 40-80 mg/kg, time 16 day
[37] = Toxicity in BALB/c nude mouse xenografted with human MDA-MB-468 cells assessed as morphological changes in liver at 80 mg/kg, ig administered daily for 16 days measured every 3 days by hematoxyin-eosin staining based analysis; format: organism-based; conditions: in vivo, po, 384 h, time 16 day
[38] = Toxicity in BALB/c nude mouse xenografted with human MDA-MB-468 cells assessed as morphological changes in kidney at 80 mg/kg, ig administered daily for 16 days measured every 3 days by hematoxyin-eosin staining based analysis; format: organism-based; conditions: in vivo, po, 384 h, time 16 day
MDA-MB-231 [39] = test: Antitumor activity against human MDA-MB-231 cells xenografted in BALB/c nude mouse assessed as tumor growth inhibition at 80 mg/kg incubated for 30 to 40 mins by Ki-67 staining based immunohistochemical analysis; format: functional, organism-based; conditions: time 30-40 min
MDA-MB-468 [40] = test: Antiproliferative activity against human MDA-MB-468 cells assessed as reduction in cell viability incubated for 72 hrs by MTT assay; format: functional, cell-based; conditions: MDA-MB-468, 72 h
[41] = Toxicity in BALB/c nude mouse xenografted with human MDA-MB-468 cells assessed as change in body weight at 80 mg/kg, ig administered daily for 16 days measured every 3 days; format: organism-based; conditions: in vivo, po, 384 h, time 16 day
[42] = biological target: T1, Poly [ADP-ribose] polymerase 1; test: Inhibition of PARP1 (unknown origin) using NAD+ as substrate incubated for 60 mins by ELISA
[43] = Toxicity in BALB/c nude mouse xenografted with human MDA-MB-468 cells assessed as morphological changes in lung at 80 mg/kg, ig administered daily for 16 days measured every 3 days by hematoxyin-eosin staining based analysis; format: organism-based; conditions: in vivo, po, 384 h, time 16 day
MDA-MB-231 [44] = test: Antitumor activity against human MDA-MB-231 cells xenografted in BALB/c nude mouse assessed as reduction in c-Myc expression at 80 mg/kg incubated for 30 to 40 mins by immunohistochemical analysis; format: functional, organism-based; conditions: time 30-40 min

SMILES: Cc1sc2c(c1C)C(c1ccc(Cl)cc1)=NC(CC(=O)OC(C)(C)C)c1nnc(C)n1-2 (configuration not stated)
- Activity (MDA-MB-231 [1]): Active
- Activity (MDA-MB-468 [2]): 12.8%
- Activity (MDA-MB-468 [3]): Active
- Activity (MDA-MB-468 [4]): Active
- Activity (MDA-MB-468 [5]): 30.72%
- Activity (MDA-MB-468 [6]): Active
- Activity (MDA-MB-468 [7]): Active
- Activity (MDA-MB-468 [8]): 58.9%
- Activity (MDA-MB-468 [9]): 7.3%
- Activity (MDA-MB-468 [10]): Active
- Activity (MDA-MB-468 [11]): 27.9%
- Activity (MDA-MB-468 [12]): Active
- Activity (MDA-MB-231 [13]): Active

SMILES: O=C(c1cc(Cc2n[nH]c(=O)c3ccccc23)ccc1F)N1CCN(C(=O)C2CC2)CC1
- Activity (MDA-MB-468 [14]): Active
- Activity (MDA-MB-231 [15]): Active

SMILES: COc1cc(OC)c2c(=O)[nH]c(-c3cc(C)c(OCCOc4ccccc4C(N)=O)c(C)c3)nc2c1
- Activity (MDA-MB-231 [16]): Active
- Activity [17]: Non-Toxic
- Activity [18]: Non-Toxic
- Activity (MDA-MB-231 [19]): Active
- inhibition [20]: 66.2%
- Activity (MDA-MB-231 [21]): Active
- Activity [22]: Non-Toxic
- Activity (MDA-MB-231 [23]): Active
- Activity [24]: Non-Toxic
- Activity [25]: Non-Toxic
- Activity [26]: Non-Toxic
- Activity [27]: Non-Toxic
- Activity (MDA-MB-231 [28]): Active
- Activity (MDA-MB-231 [29]): Active
- inhibition [30]: 35.9%
- Activity (MDA-MB-231 [31]): Active
- IC50 (MDA-MB-231 [32]): 15.6 µM
- inhibition in vivo at 80 mg/kg (MDA-MB-468 [33]): 62.5%
- Activity [34]: Non-Toxic
- Activity [35]: Non-Toxic
- Activity [36]: Non-Toxic
- Activity [37]: Non-Toxic
- Activity [38]: Non-Toxic
- Activity (MDA-MB-231 [39]): Active
- IC50 (MDA-MB-468 [40]): 6.42 µM
- Activity [41]: Non-Toxic
- IC50 [42]: 0.0046 µM
- Activity [43]: Non-Toxic
- Activity (MDA-MB-231 [44]): Active

SMILES: O=c1[nH]nc(Cc2cccc(-c3nc4cccc(Cl)c4c(=O)[nH]3)c2)c2ccccc12
- inhibition [20]: 64.8%
- inhibition [30]: 75.3%
- IC50 (MDA-MB-231 [32]): 11 µM
- IC50 (MDA-MB-468 [40]): 7.3 µM

SMILES: Cc1cccc2nc(-c3ccc(Cc4n[nH]c(=O)c5ccccc45)c(F)c3)[nH]c(=O)c12
- inhibition [20]: 38.2%
- inhibition [30]: 34.8%
- IC50 (MDA-MB-231 [32]): > 40 µM
- IC50 (MDA-MB-468 [40]): > 40 µM
